Test results taken from patent US8192962B2, “Processes for detecting toxic substances” (Daikin Industries, Ltd., priority 2001, dated 2012).

System: Energy system protein genes
Assay: DNA chip mRNA expression in yeast, energy system protein genes (Table 4)
Format: cell-based, Saccharomyces cerevisiae S288C
In short: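 First, S288C yeast grown in YPD at 25° C. are dosed in log phase with one toxicant (growth-inhibiting, not lethal) for 2 h. Next, total RNA is extracted and poly(A) mRNA isolated and reverse-transcribed with Cy3/Cy5-dUTP. Finally, whole-genome chip fluorescence is read relative to unexposed cells.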

With `Oc1cc(Cl)c(Cl)cc1Cl` [(6), 2,4,5-trichlorophenol] the “The level of expressed mRNA in the presence of chemical substance/The level of expressed mRNA in the absence of chemical substance” value (yeast gene YAL060W) was 4.2, the “The level of expressed mRNA in the presence of chemical substance/The level of expressed mRNA in the absence of chemical substance” value (yeast gene YBL058W, cells incubated two hours with the chemical substance) was 0.9 and the “The level of expressed mRNA in the presence of chemical substance/The level of expressed mRNA in the absence of chemical substance” value (yeast gene YBL099W, cells incubated two hours with the chemical substance) was 0.9. For the same compound, the “The level of expressed mRNA in the presence of chemical substance/The level of expressed mRNA in the absence of chemical substance” value (yeast gene YBR001C, cells incubated two hours with the chemical substance) was 1.1, the “The level of expressed mRNA in the presence of chemical substance/The level of expressed mRNA in the absence of chemical substance” value (yeast gene YBR126C) was 2.9 and the “The level of expressed mRNA in the presence of chemical substance/The level of expressed mRNA in the absence of chemical substance” value (yeast gene YBR185C, cells incubated two hours with the chemical substance) was 1.2. For the same compound, the “The level of expressed mRNA in the presence of chemical substance/The level of expressed mRNA in the absence of chemical substance” value (yeast gene YBR221C, cells incubated two hours with the chemical substance) was 1.7, the “The level of expressed mRNA in the presence of chemical substance/The level of expressed mRNA in the absence of chemical substance” value (yeast gene YCL040W) was 3.5 and the “The level of expressed mRNA in the presence of chemical substance/The level of expressed mRNA in the absence of chemical substance” value (yeast gene YCR012W) was 2.5. The “The level of expressed mRNA in the presence of chemical substance/The level of expressed mRNA in the absence of chemical substance” value (yeast gene YCR046C, cells incubated two hours with the chemical substance) was 0.8, the “The level of expressed mRNA in the presence of chemical substance/The level of expressed mRNA in the absence of chemical substance” value (yeast gene YCR105W, cells incubated two hours with the chemical substance) was 1.0 and the “The level of expressed mRNA in the presence of chemical substance/The level of expressed mRNA in the absence of chemical substance” value (yeast gene YDL021W) was 6.5. The “The level of expressed mRNA in the presence of chemical substance/The level of expressed mRNA in the absence of chemical substance” value (yeast gene YDL067C, cells incubated two hours with the chemical substance) was 0.9, the “The level of expressed mRNA in the presence of chemical substance/The level of expressed mRNA in the absence of chemical substance” value (yeast gene YDL078C, cells incubated two hours with the chemical substance) was 1.1 and the “The level of expressed mRNA in the presence of chemical substance/The level of expressed mRNA in the absence of chemical substance” value (yeast gene YDL107W, cells incubated two hours with the chemical substance) was 1.3. The “The level of expressed mRNA in the presence of chemical substance/The level of expressed mRNA in the absence of chemical substance” value (yeast gene YDL174C) was 1.7, the “The level of expressed mRNA in the presence of chemical substance/The level of expressed mRNA in the absence of chemical substance” value (yeast gene YDL181W, cells incubated two hours with the chemical substance) was 1.2 and the “The level of expressed mRNA in the presence of chemical substance/The level of expressed mRNA in the absence of chemical substance” value (yeast gene YDR001C) was 2.2. The “The level of expressed mRNA in the presence of chemical substance/The level of expressed mRNA in the absence of chemical substance” value (yeast gene YDR050C, cells incubated two hours with the chemical substance) was 1.7, the “The level of expressed mRNA in the presence of chemical substance/The level of expressed mRNA in the absence of chemical substance” value (yeast gene YDR079W, cells incubated two hours with the chemical substance) was 1.7 and the “The level of expressed mRNA in the presence of chemical substance/The level of expressed mRNA in the absence of chemical substance” value (yeast gene YDR178W, cells incubated two hours with the chemical substance) was 2.1. The “The level of expressed mRNA in the presence of chemical substance/The level of expressed mRNA in the absence of chemical substance” value (yeast gene YDR231C) was 2.2, the “The level of expressed mRNA in the presence of chemical substance/The level of expressed mRNA in the absence of chemical substance” value (yeast gene YDR298C, cells incubated two hours with the chemical substance) was 1.2 and the “The level of expressed mRNA in the presence of chemical substance/The level of expressed mRNA in the absence of chemical substance” value (yeast gene YDR377W, cells incubated two hours with the chemical substance) was 1.3. For the same compound, the “The level of expressed mRNA in the presence of chemical substance/The level of expressed mRNA in the absence of chemical substance” value (yeast gene YDR529C, cells incubated two hours with the chemical substance) was 0.8, the “The level of expressed mRNA in the presence of chemical substance/The level of expressed mRNA in the absence of chemical substance” value (yeast gene YEL024W, cells incubated two hours with the chemical substance) was 1.1 and the “The level of expressed mRNA in the presence of chemical substance/The level of expressed mRNA in the absence of chemical substance” value (yeast gene YEL039C, cells incubated two hours with the chemical substance) was 1.5. The “The level of expressed mRNA in the presence of chemical substance/The level of expressed mRNA in the absence of chemical substance” value (yeast gene YER178W) was 2.5, the “The level of expressed mRNA in the presence of chemical substance/The level of expressed mRNA in the absence of chemical substance” value (yeast gene YFL057C) was 1.2 and the “The level of expressed mRNA in the presence of chemical substance/The level of expressed mRNA in the absence of chemical substance” value (yeast gene YFR015C) was 3.0. For the same compound, the “The level of expressed mRNA in the presence of chemical substance/The level of expressed mRNA in the absence of chemical substance” value (yeast gene YFR053C) was 3.2, the “The level of expressed mRNA in the presence of chemical substance/The level of expressed mRNA in the absence of chemical substance” value (yeast gene YGL018C, cells incubated two hours with the chemical substance) was 0.4 and the “The level of expressed mRNA in the presence of chemical substance/The level of expressed mRNA in the absence of chemical substance” value (yeast gene YGL062W) was 1.0. For the same compound, the “The level of expressed mRNA in the presence of chemical substance/The level of expressed mRNA in the absence of chemical substance” value (yeast gene YGL187C, cells incubated two hours with the chemical substance) was 1.1, the “The level of expressed mRNA in the presence of chemical substance/The level of expressed mRNA in the absence of chemical substance” value (yeast gene YGL191W, cells incubated two hours with the chemical substance) was 1.6 and the “The level of expressed mRNA in the presence of chemical substance/The level of expressed mRNA in the absence of chemical substance” value (yeast gene YGL205W, cells incubated two hours with the chemical substance) was 1.6. The “The level of expressed mRNA in the presence of chemical substance/The level of expressed mRNA in the absence of chemical substance” value (yeast gene YGL256W, cells incubated two hours with the chemical substance) was 0.7, the “The level of expressed mRNA in the presence of chemical substance/The level of expressed mRNA in the absence of chemical substance” value (yeast gene YGR008C) was 2.9 and the “The level of expressed mRNA in the presence of chemical substance/The level of expressed mRNA in the absence of chemical substance” value (yeast gene YGR043C) was 16.3. The “The level of expressed mRNA in the presence of chemical substance/The level of expressed mRNA in the absence of chemical substance” value (yeast gene YGR062C, cells incubated two hours with the chemical substance, 25° C., YPD medium) was 0.9, the “The level of expressed mRNA in the presence of chemical substance/The level of expressed mRNA in the absence of chemical substance” value (yeast gene YGR087C, cells incubated two hours with the chemical substance) was 1.1 and the “The level of expressed mRNA in the presence of chemical substance/The level of expressed mRNA in the absence of chemical substance” value (yeast gene YGR174C, cells incubated two hours with the chemical substance) was 1.4. The “The level of expressed mRNA in the presence of chemical substance/The level of expressed mRNA in the absence of chemical substance” value (yeast gene YGR192C) was 1.7, the “The level of expressed mRNA in the presence of chemical substance/The level of expressed mRNA in the absence of chemical substance” value (yeast gene YGR207C) was 2.8 and the “The level of expressed mRNA in the presence of chemical substance/The level of expressed mRNA in the absence of chemical substance” value (yeast gene YGR244C) was 2.6. The “The level of expressed mRNA in the presence of chemical substance/The level of expressed mRNA in the absence of chemical substance” value (yeast gene YGR254W) was 1.9, the “The level of expressed mRNA in the presence of chemical substance/The level of expressed mRNA in the absence of chemical substance” value (yeast gene YGR256W) was 6.2 and the “The level of expressed mRNA in the presence of chemical substance/The level of expressed mRNA in the absence of chemical substance” value (yeast gene YHL008C) was 0.8. The “The level of expressed mRNA in the presence of chemical substance/The level of expressed mRNA in the absence of chemical substance” value (yeast gene YHR174W) was 1.5, the “The level of expressed mRNA in the presence of chemical substance/The level of expressed mRNA in the absence of chemical substance” value (yeast gene YHR179W) was 3.7 and the “The level of expressed mRNA in the presence of chemical substance/The level of expressed mRNA in the absence of chemical substance” value (yeast gene YIL045W) was 1.7. The “The level of expressed mRNA in the presence of chemical substance/The level of expressed mRNA in the absence of chemical substance” value (yeast gene YIL111W) was 2.6, the “The level of expressed mRNA in the presence of chemical substance/The level of expressed mRNA in the absence of chemical substance” value (yeast gene YIL160C) was 1.6 and the “The level of expressed mRNA in the presence of chemical substance/The level of expressed mRNA in the absence of chemical substance” value (yeast gene YIR031C, cells incubated two hours with the chemical substance) was 1.7. The “The level of expressed mRNA in the presence of chemical substance/The level of expressed mRNA in the absence of chemical substance” value (yeast gene YJL052W) was 2.4, the “The level of expressed mRNA in the presence of chemical substance/The level of expressed mRNA in the absence of chemical substance” value (yeast gene YJL121C, cells incubated two hours with the chemical substance) was 1.1 and the “The level of expressed mRNA in the presence of chemical substance/The level of expressed mRNA in the absence of chemical substance” value (yeast gene YJL166W, cells incubated two hours with the chemical substance) was 0.7. For the same compound, the “The level of expressed mRNA in the presence of chemical substance/The level of expressed mRNA in the absence of chemical substance” value (yeast gene YJR009C) was 1.6.
